{"source": "patent US7771757B2", "about": "“Nasal irrigation solutions and methods of using same” (Himalayan International Institute of Yoga Science and …, priority 2002, dated 2010)", "origin": "cited, not measured here", "key": {"common cold": {"tested_on": "common cold", "conditions": "variously administered forms; in many cases"}}, "data": [{"compound": "COc1ccc2cc3[n+](cc2c1OC)CCc1cc2c(cc1-3)OCO2", "note": "[berberine]", "values": [{"measurement": "activity in vitro against the growth of organisms", "setting": "pneumococci", "result": "active"}, {"measurement": "activity in vitro against the growth of organisms", "setting": "staphylococci", "result": "active"}, {"measurement": "activity in vitro against the growth of organisms", "setting": "streptococci", "result": "active"}]}, {"compound": "zinc", "values": [{"measurement": "reduction of the duration of common cold symptoms", "setting": "common cold", "result": "by half"}]}]}
